{
  "source": "patent US8993282B2",
  "about": "“Carotenoid fermentation method” (JX Nippon Oil & Energy Corporation, priority 2008, dated 2015)",
  "key": {"[1]": {"system": "Paracoccus sp. strain A-581-1 (FERM BP-4671)", "assay": "Glutamate supplementation, 5 L fermentation tank culture, carotenoid by HPLC", "assay_type": "cell-based", "procedure": "(§1) In the examples, carotenoids were quantified by high performance liquid chromatography (HPLC) as follows.\n(§2) Two columns of Wakosil-II 5 SIL-100 (φ4.6×250 mm) (Wako Pure Chemical Industries, Ltd., Japan) were connected to each other for use as a column. Elution was performed by flowing an n-hexane-tetrahydrofuran-methanol mixed solution (40:20:1), which was a mobile phase, at a flow rate of 1.0 mL/minute at a constant temperature around room temperature. The measurement was performed as follows. Samples were each dissolved in tetrahydrofuran and then diluted 100-fold with the mobile phase. Each dilution was injected in a volume of 20 μL. The column eluate was detected at a wavelength of 470 nm. As a reference for quantification, astaxanthin (SIGMA, Cat. No. A9335) was used. The astaxanthin concentration of the reference solution was determined using the following equation after measuring the absorbance (A) of the reference solution at 477 nm and the area percentage % (B) of the astaxanthin peak at the time of HPLC analysis under the above conditions. Astaxanthin concentration (mg/L)=A/2150×B×100\nA medium of the following composition (sucrose 20 g/L, filtered corn steep liquor 5 g/L, potassium dihydrogenphosphate 0.54 g/L, dipotassium hydrogenphosphate 12-hydrate 2.78 g/L, calcium chloride dihydrate 5.0 g/L, magnesium sulfate 7-hydrate 0.7 g/L, iron sulfate 7-hydrate 3.0 g/L, alcohol-based […] agent 0.2 g/L, pH 7.5) was dispensed in 100 ml volumes into 500 mL cotton-plugged Erlenmeyer flasks and sterilized in an autoclave at 121° C., for 15 minutes to prepare a flask medium for seed culture in 2 flasks.\nNext, a medium of the following composition (glucose 40 g/L, corn steep liquor 30 g/L, ammonium sulfate 0.5 g/L, potassium dihydrogenphosphate 2.25 g/L, disodium hydrogenphosphate 12-hydrate 5.7 g/L, calcium chloride dihydrate […], magnesium sulfate 7-hydrate 0.5 g/L, iron sulfate 7-hydrate 5 g/L, alcohol-based defoaming agent 0.5 g/L) was dispensed in 2.0 L volumes into 5 L fermentation tanks (2 tanks in total). One of the fermentation tanks was supplemented with monosodium L-glutamate monohydrate to 15 mmol/L, while the other was supplemented with nothing as a control. These fermentation tanks were sterilized in an autoclave at 121° C. for 30 minutes.\nA loopful of Paracoccus sp. strain A-581-1 (FERM BP-4671) was inoculated into the flask medium for seed culture and then cultured with rotary shaking at 27° C. for 2 days at 150 rpm. The resulting culture solution was then inoculated in 90 mL volumes into the individual fermentation tanks, followed by aerobic culture at 27° C. at an aeration volume of 1 vvm for 100 hours. To maintain a pH of 7.1 during culture, the pH was continuously controlled with 20% aqueous sodium hydroxide. Glucose was added in an amount of 30 g on […] day 2 of culture to prevent glucose depletion. At 22 and 29 hours of culture, monosodium L-glutamate monohydrate and ammonium sulfate were added in amounts of 5 g and 3 g, respectively, per liter of the initial medium. The minimum number of agitation rotations was set to 100 rpm, and the number of agitation rotations was varied such that the dissolved oxygen concentration in the culture solution was maintained at 2 to 4 ppm. An alcohol-based defoaming agent was added in an amount of 0.1 g per hour to prevent bubble formation,\nAt the completion of culture, each culture solution was measured for its carotenoid concentration by HPLC."}, "[2]": {"system": "Paracoccus sp. strain Y-1071", "assay": "Glutamate supplementation, test tube culture (Pharmamedia medium), carotenoid by HPLC", "assay_type": "cell-based", "procedure": "as §1\nas §2, with “conditions.” for “conditions. Astaxanthin concentration (mg/L)=A/2150×B×100”\nNext, a medium of the following composition (sucrose 30 g/L, Pharmamedia 20 g/L, ammonium sulfate 1.5 g/L, potassium dihydrogenphosphate 1.5 g/L, disodium hydrogenphosphate 12-hydrate 3.8 g/L, calcium chloride dihydrate 0.1 g/L, magnesium sulfate 7-hydrate 4.5 g/L, iron sulfate 7-hydrate 5 g/L, biotin 1 mg/L, silicon-based defoaming agent 1 g/L) was dispensed in 8 ml volumes into cotton-plugged test tubes having an inner diameter of 18 mm (2 tubes in total). One of the tubes was supplemented with monosodium L-glutamate monohydrate to 30 mmol/L, while the other was supplemented with nothing as a control.\nThe resulting culture solution was then inoculated in 0.1 ml volumes into the two test tube media and cultured with shaking at 28° C. for 4 days at 300 spm.\nEach culture solution was measured for its carotenoid concentration by HPLC."}, "[3]": {"settings": "Glutamic acid concentration 15 mmol/L, 100 hours"}, "[4]": {"settings": "Glutamic acid concentration 30 mmol/L, 28° C. for 4 days"}},
  "data": [
    {"smiles": "N[C@@H](CCC(=O)O)C(=O)O", "note": "[Glutamic acid, glutamic acid]", "values": [
      {"measurement": "produced carotenoid concentration compared to the sample without glutamic acid", "setting": "[1]; 15 mmol/L", "result": "higher produced carotenoid concentration"},
      {"measurement": "3-Hydroxyechinenone", "setting": "[1]; [3]", "result": 0.05, "unit": "mg/L"},
      {"measurement": "Adonixanthin", "setting": "[1]; [3]", "result": 2.10, "unit": "mg/L"},
      {"measurement": "Astaxanthin", "setting": "[1]; [3]", "result": 5.97, "unit": "mg/L"},
      {"measurement": "Asteroidenone", "setting": "[1]; [3]", "result": 0.02, "unit": "mg/L"},
      {"measurement": "Canthaxanthin", "setting": "[1]; [3]", "result": 1.22, "unit": "mg/L"},
      {"measurement": "Echinenone", "setting": "[1]; [3]", "result": 0.51, "unit": "mg/L"},
      {"measurement": "Phoenicoxanthin", "setting": "[1]; [3]", "result": 2.01, "unit": "mg/L"},
      {"measurement": "Total carotenoid", "setting": "[1]; [3]", "result": 13.68, "unit": "mg/L"},
      {"measurement": "Zeaxanthin", "setting": "[1]; [3]", "result": 0.03, "unit": "mg/L"},
      {"measurement": "β-Carotene", "setting": "[1]; [3]", "result": 1.76, "unit": "mg/L"},
      {"measurement": "β-Cryptoxanthin", "setting": "[1]; [3]", "result": 0.01, "unit": "mg/L"},
      {"measurement": "produced carotenoid concentration compared to the sample without glutamic acid", "setting": "[2]; 30 mmol/L", "result": "higher produced carotenoid concentration"},
      {"measurement": "3-Hydroxyechinenone", "setting": "[2]; [4]", "result": 0.7, "unit": "mg/L"},
      {"measurement": "Adonixanthin", "setting": "[2]; [4]", "result": 18.4, "unit": "mg/L"},
      {"measurement": "Astaxanthin", "setting": "[2]; [4]", "result": 94.8, "unit": "mg/L"},
      {"measurement": "Asteroidenone", "setting": "[2]; [4]", "result": 1.5, "unit": "mg/L"},
      {"measurement": "Canthaxanthin", "setting": "[2]; [4]", "result": 10.0, "unit": "mg/L"},
      {"measurement": "Echinenone", "setting": "[2]; [4]", "result": 6.5, "unit": "mg/L"},
      {"measurement": "Phoenicoxanthin", "setting": "[2]; [4]", "result": 24.8, "unit": "mg/L"},
      {"measurement": "Total carotenoid", "setting": "[2]; [4]", "result": 170.2, "unit": "mg/L"},
      {"measurement": "Zeaxanthin", "setting": "[2]; [4]", "result": 0.28, "unit": "mg/L"},
      {"measurement": "β-Carotene", "setting": "[2]; [4]", "result": 13.1, "unit": "mg/L"},
      {"measurement": "β-Cryptoxanthin", "setting": "[2]; [4]", "result": 0.10, "unit": "mg/L"}
    ]}
  ]
}
